In BindingDB's records for doi:10.7270/Q20R9MZM (Merrell Dow Research Institute, 1990):

Target: T1, Prunasin hydrolase (Prunus dulcis, UniProt H9ZGD9)
T1 sequence (H9ZGD9 whole entry): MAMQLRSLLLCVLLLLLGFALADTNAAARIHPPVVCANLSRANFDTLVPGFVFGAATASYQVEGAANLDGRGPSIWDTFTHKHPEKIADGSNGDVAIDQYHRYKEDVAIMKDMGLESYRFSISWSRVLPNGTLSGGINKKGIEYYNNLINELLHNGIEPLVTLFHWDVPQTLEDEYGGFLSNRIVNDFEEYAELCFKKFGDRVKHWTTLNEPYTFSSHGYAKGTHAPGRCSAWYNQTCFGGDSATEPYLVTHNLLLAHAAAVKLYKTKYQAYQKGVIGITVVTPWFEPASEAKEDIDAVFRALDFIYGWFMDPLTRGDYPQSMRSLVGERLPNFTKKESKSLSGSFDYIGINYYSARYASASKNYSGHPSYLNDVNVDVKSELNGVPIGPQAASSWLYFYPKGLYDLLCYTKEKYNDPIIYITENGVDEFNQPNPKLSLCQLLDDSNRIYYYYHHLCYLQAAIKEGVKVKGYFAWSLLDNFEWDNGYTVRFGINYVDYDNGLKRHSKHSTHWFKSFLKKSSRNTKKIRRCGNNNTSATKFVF
Experiment: Enzyme Assay
Conditions: pH 5.6; 37 °C
Procedure: The enzyme activity was measured by monitoring the increase in absorbance at 400 nm due to hydrolysis of para-nitrophenyl-beta-glucopyranoside. All assays were carried out in the presence of 0.05M sodium acetate buffer (pH 5.6) and 0.1 mM EDTA at 37 C.

Ki	SMILES
1700 µM	OC[C@H]1O[C@@H](Oc2ccc(C(F)F)cc2)[C@H](O)[C@@H](O)[C@@H]1O [Glucosidase inhibitor, 6a]
60 µM	COc1cc(C(F)F)ccc1O[C@@H]1O[C@H](CO)[C@@H](O)[C@H](O)[C@H]1O [Glucosidase inhibitor, 6b]
100 µM	CCOc1cc(C(F)F)ccc1O[C@@H]1O[C@H](CO)[C@@H](O)[C@H](O)[C@H]1O [Glucosidase inhibitor, 6c]
1900 µM	COc1cc(C(F)F)cc(OC)c1O[C@@H]1O[C@H](CO)[C@@H](O)[C@H](O)[C@H]1O [Glucosidase inhibitor, 6d]
3700 µM	OC[C@H]1O[C@@H](Oc2ccccc2C(F)F)[C@H](O)[C@@H](O)[C@@H]1O [Glucosidase inhibitor, 6e]
900 µM	COc1ccc(O[C@@H]2O[C@H](CO)[C@@H](O)[C@H](O)[C@H]2O)c(C(F)F)c1 [Glucosidase inhibitor, 6f]
800 µM	COc1cc(CF)ccc1O[C@@H]1O[C@H](CO)[C@@H](O)[C@H](O)[C@H]1O [Glucosidase inhibitor, 11]
